Test results as given in patent publication US20040235900A1, “Antimicrobial oxazolifinones with improved pharmacokinetic profile and safety advantages” (priority 2002, published 2004).

Legend:
[1] = Pharmacokinetic study, single oral dose in beagle dog; type: in vivo; settings: serum, single oral dose 5 mg/kg p.o., Compound No. 4 and linezolid in 5% Tween, other compounds in cyclodextrin; for AUC(0-t): read-out: AUC (0-24 hr); for concentration at 12 hr: read-out: C-12 hr
Method: Oral (5 mg/kg) and intravenous (5 mg/kg bolus) pharmacokinetic studies were done in dog. Blood samples were collected at time points of 0, 0.08 (not for oral), 0.25, 0.50, 1.0, 1.5, 2.0, 3.0, 4.0, 5.0, 6.0, 8.0, 10.0, 12.0 and 24.0 hours. To facilitate i.v. dosing and collection of blood samples, the dogs were implanted with cannula in cephalic vein. Serum obtained from blood samples was used for HPLC-based analysis.
Serum samples were extracted by solid phase extraction technique using Water's OASIS HLB cartridges. An HPLC-Diode array detection system was used for analysis. Prepared samples were chromatographed on a YMC-AM reversed phase column (150×4.6 mm ID; 5 μm) using an isocratic mobile phase acetate buffer (50 mmol ammonium acetate pH 6.6) acetonitrile, 66:34% v/v (for a representative compound of the invention, 68:32% v/v for compound Nos. 30, 3, 7 and 11 of U.S. Pat. No. 5,668,286, and 75:25% v/v for linezolid) at a flow rate of 1 ml/min, measured at λmax 254 nm. Independently prepared analytical standards and quality control samples were analyzed with each set of unknown samples.
The pharmacokinetics of a representative compound of the invention following single oral dose administration of the compound in beagle dog is shown in Table 2.

[2] = Myelosuppressive potential: spleen and thymus relative weights, 14-day oral dosing; type: in vivo, Wistar rats
Description: Compound No.30 of U.S. Pat. […] Vehicle treated controls were maintained using identical experimental conditions. The treated as well as control rats were sacrificed 24 hr after the last dose. One parameter measured was the spleen to body weight ratio and thymus to body weight ratio in treated versus control animals. The spleen and thymus were trimmed free of fat and other contiguous organs/tissues and were weighed in an analytical balance (Sartorious BP 210). The spleen to terminal body weight ratio and the thymus to terminal body weights ratio was calculated to provide the respective relative weights. The ratio value of the respective relative weight of a treated animal versus the relative weight of a control animal is provided in Table 4. The myelosuppressive potential of a compound is inversely proportional to the ratio value. […] Values in each of the first two columns above represent ratio of relative weight (calculated organ to body weight ratio) of spleen or thymus in drug treated animals v/s control animals. […] The “[…]” column provides ratio of percentage reticulocytes in treated v/s percentage reticulocytes in control rats.

MRSA 32 = test: Murine assay procedure (systemic MRSA 32 infection, oral treatment); type: in vivo, swiss mice; settings: Staphylococcus aureus; oral administration, doses 1 hr and 4 hrs after infection; MRSA 32 infected mice; percentage survival on Day 7
Method: Oxazolidinone new chemical entities (NCEs) were evaluated for their in vivo efficacy in a murine infection caused by multi-drug resistant, methicillin resistant Staphylococcus aureus strain, referred to as MRSA 32, a clinical isolate obtained from a hospitalised patient. The procedure used for the murine assay is as follows:
Four weeks old swiss mice of 18-22 gm body weight were infected with MRSA 32 strain suspended in 5% Hog gastric Mucin. The infecting dose of bacteria was set at 1-2×10^8 CFU/animal. The infecting dose was administered in 0.5 ml volume injected into peritonial cavity of mice. The treatment with oxazolidinone NCEs was started one hour after infection by administering 100-200 μl of the suspensions of oxazolidinone compounds in 5% Tween 80 by oral gavage. A repeat dose was similarly administered 3 hrs later. Each oxazolidinone NCE was tested at 2-3 different dosages in the range of 2.5 mg/kg to 20 mg/kg. In each dose group 6 mice were included. As an infection control group 12 mice were infected with MRSA 32 strain without giving any treatment. Normally untreated infected mice die within 24 hrs. due to the systemic spread of infection through out the animal body. […] For compounds affording protection of MRSA infected mice, ED50 dosages were calculated on the basis of percentage survival on Day 7 after infection.
The in-vivo ED50 values using the test compounds were determined essentially by the method as described in PCT WO 95/25106, U.S. Pat. No. 5,668,286 and EP 0 750 618 B1.

[3] = Wistar rats, oral, 14 consecutive days, 50 mg/kg per day (LNZ 2×25 mg/kg per day), ratio less than 0.75 indicates myelosuppressive potential

half-life [1] [h]	AUC(0-t) [1] [ng·h/mL]	Cmax [1] [ng/mL]	concentration at 12 hr [1] [ng/mL]	myelosuppressive potential (in words) ([2]; rat, in vivo)	Compound	Relative Weights Ratio Spleen (spleen weight/body weight of treated animal versus control animal) [2, 3]	Relative Weights Ratio Thymus (thymus weight/body weight of treated animal versus control animal) [2, 3]	ED50 (MRSA 32) [mg/kg]
2.42 ± 0.17	22800 ± 2170	5700 ± 690	0		CC(=O)NC[C@H]1CN(c2ccc(N3CCOCC3)c(F)c2)C(=O)O1 [Linezolid]	0.46	0.46	
10.8 ± 2.45	71560 ± 250	5660 ± 1490	2840 ± 170	no or lower myelosuppressive potential	CC(=O)NC[C@H]1CN(c2ccc(N3CCC(CC#N)CC3)c(F)c2)C(=O)O1 [Compound 4, (S)-N-{3-[4-(4-cyanomethyl-piperidin-1-yl)-3-fluoro-phenyl]-2-oxo-oxazolidin-5-ylmethyl}-acetamide]			2.5 to 5
